{
  "source": "paper PMC5711494",
  "about": "“Sterol methyltransferase a target for anti-amoeba therapy: towards transition state analog and suicide substrate drug design” (Journal of Lipid Research, 2017)",
  "key": {"Ac24-SMT [1]": {"tested_on": "Ac24-SMT", "assay": "Covalent labeling of Ac24-SMT with DHL and 3H-SAM, SDS-PAGE gel slice counting", "assay_type": "binding, Acanthamoeba castellanii", "conditions": "45 min, 35°C, SDS-PAGE gel slices", "procedure": "For 24-SMT labeling, partially pure recombinant enzyme obtained from 0.25 salt gradient fraction after Q-chromatography and desalted with buffer exchange (as reported in reference) was generated as a reference specimen of cloned SMT migrating at ∼39 kDa indicated by a protein ladder (Bio-Rad). Protein was stained with Coomassie Brilliant Blue R 250. […] After filtration and concentration, 22 µg total protein was loaded on 12% SDS-PAGE gel against a protein ladder (Bio-Rad) that ranged from 15 to 100 kDa. Next, five bands were excised from the gel corresponding to approximate molecular masses that range between 1) 15–25 kDa, 2) 25–35 KDa, 3) 35–45 kDa, 4) 45–55 kDa, and 5) 55–75 kDa, placed into a vial of 50% hydrogen peroxide, and left overnight at 60°C for digestion ([29]). To these vials was added scintillant and the radioactivity (^3H in dpm) measured by liquid scintillation counting."}, "Ac24-SMT [2]": {"tested_on": "Ac24-SMT", "assay": "Substrate kinetics and product analysis with recombinant Ac24-SMT", "assay_type": "biochemical, Acanthamoeba castellanii", "procedure": "(§1) The SMT constructs were transformed into competent BL21(DE3) cells and transformants selected against 100 µg/ml ampicillin. Expression of the SMT constructs and partial purification of the recombinant proteins followed the procedure described previously ([19]). […] In one tube, cells were induced by addition of isopropyl thio-galactoside at a final concentration of 1 mM and in the other tube, were un-induced. Cells were harvested 2 and 4 h after induction and an equal number of cells (as calculated by OD @600 nm) from induced (+) and un-induced (−) cultures were boiled with 1X Laemmli’s buffer and analyzed by SDS-PAGE (12%). Gel was stained with Coomassie Brilliant Blue (0.2%) to establish the molecular weight and purity of the expressed protein. Total protein concentrations were determined by Bradford dye-binding procedure with bovine γ-globulin as standard. To determine the catalytic activity of the recombinant proteins, enzyme assays were carried out using soluble bacterial extract (100,000 g fraction) in 9 ml test tubes containing a total of 600 µl assay volume for 45 min (initial velocity conditions). The assay buffer contained 20 mM phosphate buffer in 5% (v/v) glycerol at pH 7.5, sterol acceptor emulsified in 12 µl Tween 80 (1.2 g/l), and the substrate tested over the concentration range 5 to 150 µM against 1.2 mg of total protein. The reaction was initiated by the addition of saturating levels of [methyl-^3H3]SAM, 0.9 µCi, at 150 µM. Incubation mixtures were saponified with methanolic potassium hydroxide and extracted with hexane (3 × 1 ml) and concentrated to dryness providing the nonsaponifiable lipid fraction; radioactivity was determined by liquid scintillation counting. […]"}, "[3]": {"tested_on": "Acanthamoeba castellanii trophozoites sterol biosynthesis", "assay": "Sterol composition of treated Ac trophozoites (GC/MS)", "assay_type": "cell-based", "conditions": "15 µM, 24 h", "procedure": "Amoeba and HEK cells were harvested at one or more points during growth in the presence and absence of steroidal inhibitor and azole at IC50 or MACs of the inhibitor or at 40 µM for HEK cells. Cell pellets were split with an internal standard of known amounts of 5α-cholestane added to one of the cell pellets for determination of sterol amounts in cells. Cells were saponified directly in aqueous methanolic potassium hydroxide at the reflux temperature for 1 h, which yielded total sterol (free plus sterol released from ester bonds). The resulting neutral lipids obtained by dilution with water and extraction with hexane (Fisher) were analyzed by GC/MS or HPLC-equipped with a diode array detector against cholesterol as a chromatographic reference. GC and HPLC retention times of sterols were compared with those obtained from authentic standards in our steroid collection ([18]–[22]). To determine the trophozoite sterol metabolome, GC/MS analysis of cell pellet nonsaponfiables was typically carried out using control cultures incubated in 5 ml medium in 25 ml T-flasks inoculated with 1 × 10^4 trophozoites/ml and cultured for 72 h. To generate significant cell pellets for sterol analysis of treated cells, trophozoites were cultured in 10 ml medium in 25 ml T-flasks inoculated with 1 × 10^5 cells/ml and grown for 48 h."}, "Ac28-SMT": {"tested_on": "Ac28-SMT", "assay": "Substrate kinetics and product analysis with recombinant Ac28-SMT", "assay_type": "biochemical, Acanthamoeba castellanii", "conditions": "incubated with SAM cosubstrate", "procedure": "as §1"}, "[4]": {"molecular_target": "Ac24-SMT (sterol 24-methyltransferase, SMT1) (Acanthamoeba castellanii, UniProt L8GNG7)", "sequence (L8GNG7 entry or part of it)": "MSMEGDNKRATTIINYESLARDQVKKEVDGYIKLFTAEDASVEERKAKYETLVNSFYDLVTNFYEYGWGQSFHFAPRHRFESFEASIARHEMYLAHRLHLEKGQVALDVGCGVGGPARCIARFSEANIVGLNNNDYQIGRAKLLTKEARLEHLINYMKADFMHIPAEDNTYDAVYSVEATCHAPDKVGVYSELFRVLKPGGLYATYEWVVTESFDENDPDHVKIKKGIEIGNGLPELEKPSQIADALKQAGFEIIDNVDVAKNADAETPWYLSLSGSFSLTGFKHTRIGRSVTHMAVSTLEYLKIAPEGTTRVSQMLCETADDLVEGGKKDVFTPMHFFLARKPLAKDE", "assay": "Inhibition of recombinant Ac24-SMT assayed with native substrate cycloartenol and [methyl-3H3]SAM", "assay_type": "biochemical", "conditions": "read-out: Ki against 24-SMT (competitive inhibitor); assayed with natural substrate", "procedure": "The SMT constructs were transformed into competent BL21(DE3) cells and transformants selected against 100 µg/ml ampicillin. Expression of the SMT constructs and partial purification of the recombinant proteins followed the procedure described previously ([19]). Briefly, a single colony for 24-SMT and 28-SMT were grown overnight in an orbital shaker (250–300 rpm) at 37°C in Luria broth containing ampicillin and then reinoculated in fresh medium at 1 in 10 dilution. […] In one tube, cells were induced by addition of isopropyl thio-galactoside at a final concentration of 1 mM and in the other tube, were un-induced. Cells were harvested 2 and 4 h after induction and an equal number of cells (as calculated by OD @600 nm) from induced (+) and un-induced (−) cultures were boiled with 1X Laemmli’s buffer and analyzed by SDS-PAGE (12%). […] Total protein concentrations were determined by Bradford dye-binding procedure with bovine γ-globulin as standard. […] Incubation mixtures were saponified with methanolic potassium hydroxide and extracted with hexane (3 × 1 ml) and concentrated to dryness providing the nonsaponifiable lipid fraction; radioactivity was determined by liquid scintillation counting. […] Controls containing radioactive SAM and no sterol used to background subtract radioactivity in these treatments was less than 500 dpm. […]"}},
  "note": "Entries after “also recorded” stand apart in the source; their conditions may differ.",
  "data": [
    {"smiles": "CC(CCC=C1CC1)C1CC[C@@]2(C)C3=C(CCC12C)C1(C)CCC(O)C(C)(C)C1CC3", "note": "(some centres unmarked) [DHL, 26,27-dehydrolanosterol]", "values": [
      {"measurement": "radioactivity associated with protein band of ∼39 kDa", "setting": "Ac24-SMT [1]", "value": "< 90", "unit": "%"},
      {"measurement": "difference in catalytic competence (kcat/Km) from the natural substrate of 24-SMT", "setting": "Ac24-SMT [2]", "value": "greater than 10 fold"},
      {"measurement": "conversion by Ac24-SMT to product P1 (C26-monol)", "setting": "Ac24-SMT [2]; GC/MS, saturating cosubstrates", "value": 3, "unit": "%"},
      {"measurement": "conversion by Ac24-SMT to product P2 (C26-diol)", "setting": "Ac24-SMT [2]; GC/MS, saturating cosubstrates", "value": 1, "unit": "%"},
      {"measurement": "Km (Michaelis / binding constant) as substrate of Ac24-SMT", "setting": "Ac24-SMT [2]; saturating SAM 150 µM, initial velocity conditions", "value": "~33", "unit": "µM"},
      {"measurement": "effect on sterol composition", "setting": "[3]", "value": "minimal effect"},
      {"measurement": "activity / methyl product formation as substrate of Ac28-SMT", "setting": "Ac28-SMT", "value": "not productively bound; also recorded: no activity was observed; also recorded: no methyl products were detected"},
      {"measurement": "Ki", "setting": "[4]", "value": 16, "unit": "µM"}
    ]}
  ]
}
